The results in this text go back to article PMC6736866, “Electron cryomicroscopy observation of acyl carrier protein translocation in type I fungal fatty acid synthase” (Scientific Reports, 2019).

In assay [1] the target is T1, C. albicans type I fungal fatty acid synthase (FAS) (Candida albicans, UniProt P34731+P43098).
T1 construct: gene FAS1; endogenous alpha6beta6 complex, native purification by anti-FLAG; C-terminal 6xHIS-3xFLAG on FAS1 (beta) kept; holo-ACP
As to the kind of experiment: cryoEM structure; NADPH oxidation at […] nm. The class given is biochemical. The settings on record: ER domain near FMN (beta chain); KS-stalled state, 3 mM NADPH, cerulenin-inhibited; weak density, partial binding.

The target in assay [2] is T2, S. cerevisiae type I fungal fatty acid synthase (FAS) (Saccharomyces cerevisiae, UniProt P07149+P19097).
T2 construct: gene FAS1; endogenous alpha6beta6 heterododecamer, native purification by anti-FLAG; C-terminal 3xFLAG on FAS1 (beta) kept; beta 230 kDa, alpha 220 kDa; holo-ACP
T2 sequence (P07149 whole entry): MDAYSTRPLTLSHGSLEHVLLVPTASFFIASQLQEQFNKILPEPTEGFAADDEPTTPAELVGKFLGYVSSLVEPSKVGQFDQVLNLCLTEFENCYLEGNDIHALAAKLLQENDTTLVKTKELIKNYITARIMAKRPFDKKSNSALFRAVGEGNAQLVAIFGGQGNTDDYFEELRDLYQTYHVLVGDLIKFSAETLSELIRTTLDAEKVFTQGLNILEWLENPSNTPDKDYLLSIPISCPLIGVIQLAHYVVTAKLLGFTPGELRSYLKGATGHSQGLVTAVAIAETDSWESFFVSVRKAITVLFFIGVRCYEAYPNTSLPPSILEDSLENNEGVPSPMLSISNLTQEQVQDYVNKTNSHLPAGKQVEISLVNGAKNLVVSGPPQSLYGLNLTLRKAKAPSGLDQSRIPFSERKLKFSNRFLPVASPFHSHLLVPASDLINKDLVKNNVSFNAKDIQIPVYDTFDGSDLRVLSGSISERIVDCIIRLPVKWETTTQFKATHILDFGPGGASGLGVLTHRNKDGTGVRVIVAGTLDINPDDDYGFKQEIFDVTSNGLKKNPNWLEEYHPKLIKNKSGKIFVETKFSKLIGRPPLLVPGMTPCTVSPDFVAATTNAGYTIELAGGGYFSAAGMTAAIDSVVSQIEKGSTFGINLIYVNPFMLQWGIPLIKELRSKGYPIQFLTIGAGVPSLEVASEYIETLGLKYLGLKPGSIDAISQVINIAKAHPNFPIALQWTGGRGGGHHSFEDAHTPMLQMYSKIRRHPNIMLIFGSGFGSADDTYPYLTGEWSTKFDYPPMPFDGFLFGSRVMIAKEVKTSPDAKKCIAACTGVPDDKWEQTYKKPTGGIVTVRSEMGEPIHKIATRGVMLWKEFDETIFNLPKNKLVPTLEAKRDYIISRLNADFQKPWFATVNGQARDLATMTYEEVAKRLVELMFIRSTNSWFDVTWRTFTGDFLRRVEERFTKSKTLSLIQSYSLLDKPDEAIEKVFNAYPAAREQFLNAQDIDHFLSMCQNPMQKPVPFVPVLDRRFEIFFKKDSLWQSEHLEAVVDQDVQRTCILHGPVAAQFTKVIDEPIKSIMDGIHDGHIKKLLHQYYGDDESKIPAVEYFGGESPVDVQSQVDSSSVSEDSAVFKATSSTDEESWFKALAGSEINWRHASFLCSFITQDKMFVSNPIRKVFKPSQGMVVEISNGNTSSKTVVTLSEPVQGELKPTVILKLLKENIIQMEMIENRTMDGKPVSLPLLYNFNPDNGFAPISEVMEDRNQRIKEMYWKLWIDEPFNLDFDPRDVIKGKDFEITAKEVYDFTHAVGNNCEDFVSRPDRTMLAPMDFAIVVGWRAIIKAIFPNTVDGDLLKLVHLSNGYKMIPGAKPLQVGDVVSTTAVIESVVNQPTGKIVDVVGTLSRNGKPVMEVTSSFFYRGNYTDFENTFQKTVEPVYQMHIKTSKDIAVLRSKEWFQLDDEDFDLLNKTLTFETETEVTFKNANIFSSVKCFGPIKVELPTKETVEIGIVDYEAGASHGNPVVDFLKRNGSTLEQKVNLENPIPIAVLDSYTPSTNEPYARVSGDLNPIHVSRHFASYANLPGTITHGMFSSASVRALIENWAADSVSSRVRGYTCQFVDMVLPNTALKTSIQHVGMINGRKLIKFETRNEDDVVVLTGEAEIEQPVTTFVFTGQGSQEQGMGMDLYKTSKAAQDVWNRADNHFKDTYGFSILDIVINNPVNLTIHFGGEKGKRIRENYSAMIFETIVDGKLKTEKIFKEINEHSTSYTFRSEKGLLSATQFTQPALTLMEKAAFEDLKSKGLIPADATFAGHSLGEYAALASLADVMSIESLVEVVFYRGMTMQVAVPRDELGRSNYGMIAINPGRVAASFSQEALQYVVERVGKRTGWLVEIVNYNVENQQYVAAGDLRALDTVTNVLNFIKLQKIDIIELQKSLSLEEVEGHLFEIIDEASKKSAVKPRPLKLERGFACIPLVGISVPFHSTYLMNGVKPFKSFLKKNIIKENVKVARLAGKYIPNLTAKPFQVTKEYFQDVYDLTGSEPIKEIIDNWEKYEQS
T2 sequence (P19097 whole entry): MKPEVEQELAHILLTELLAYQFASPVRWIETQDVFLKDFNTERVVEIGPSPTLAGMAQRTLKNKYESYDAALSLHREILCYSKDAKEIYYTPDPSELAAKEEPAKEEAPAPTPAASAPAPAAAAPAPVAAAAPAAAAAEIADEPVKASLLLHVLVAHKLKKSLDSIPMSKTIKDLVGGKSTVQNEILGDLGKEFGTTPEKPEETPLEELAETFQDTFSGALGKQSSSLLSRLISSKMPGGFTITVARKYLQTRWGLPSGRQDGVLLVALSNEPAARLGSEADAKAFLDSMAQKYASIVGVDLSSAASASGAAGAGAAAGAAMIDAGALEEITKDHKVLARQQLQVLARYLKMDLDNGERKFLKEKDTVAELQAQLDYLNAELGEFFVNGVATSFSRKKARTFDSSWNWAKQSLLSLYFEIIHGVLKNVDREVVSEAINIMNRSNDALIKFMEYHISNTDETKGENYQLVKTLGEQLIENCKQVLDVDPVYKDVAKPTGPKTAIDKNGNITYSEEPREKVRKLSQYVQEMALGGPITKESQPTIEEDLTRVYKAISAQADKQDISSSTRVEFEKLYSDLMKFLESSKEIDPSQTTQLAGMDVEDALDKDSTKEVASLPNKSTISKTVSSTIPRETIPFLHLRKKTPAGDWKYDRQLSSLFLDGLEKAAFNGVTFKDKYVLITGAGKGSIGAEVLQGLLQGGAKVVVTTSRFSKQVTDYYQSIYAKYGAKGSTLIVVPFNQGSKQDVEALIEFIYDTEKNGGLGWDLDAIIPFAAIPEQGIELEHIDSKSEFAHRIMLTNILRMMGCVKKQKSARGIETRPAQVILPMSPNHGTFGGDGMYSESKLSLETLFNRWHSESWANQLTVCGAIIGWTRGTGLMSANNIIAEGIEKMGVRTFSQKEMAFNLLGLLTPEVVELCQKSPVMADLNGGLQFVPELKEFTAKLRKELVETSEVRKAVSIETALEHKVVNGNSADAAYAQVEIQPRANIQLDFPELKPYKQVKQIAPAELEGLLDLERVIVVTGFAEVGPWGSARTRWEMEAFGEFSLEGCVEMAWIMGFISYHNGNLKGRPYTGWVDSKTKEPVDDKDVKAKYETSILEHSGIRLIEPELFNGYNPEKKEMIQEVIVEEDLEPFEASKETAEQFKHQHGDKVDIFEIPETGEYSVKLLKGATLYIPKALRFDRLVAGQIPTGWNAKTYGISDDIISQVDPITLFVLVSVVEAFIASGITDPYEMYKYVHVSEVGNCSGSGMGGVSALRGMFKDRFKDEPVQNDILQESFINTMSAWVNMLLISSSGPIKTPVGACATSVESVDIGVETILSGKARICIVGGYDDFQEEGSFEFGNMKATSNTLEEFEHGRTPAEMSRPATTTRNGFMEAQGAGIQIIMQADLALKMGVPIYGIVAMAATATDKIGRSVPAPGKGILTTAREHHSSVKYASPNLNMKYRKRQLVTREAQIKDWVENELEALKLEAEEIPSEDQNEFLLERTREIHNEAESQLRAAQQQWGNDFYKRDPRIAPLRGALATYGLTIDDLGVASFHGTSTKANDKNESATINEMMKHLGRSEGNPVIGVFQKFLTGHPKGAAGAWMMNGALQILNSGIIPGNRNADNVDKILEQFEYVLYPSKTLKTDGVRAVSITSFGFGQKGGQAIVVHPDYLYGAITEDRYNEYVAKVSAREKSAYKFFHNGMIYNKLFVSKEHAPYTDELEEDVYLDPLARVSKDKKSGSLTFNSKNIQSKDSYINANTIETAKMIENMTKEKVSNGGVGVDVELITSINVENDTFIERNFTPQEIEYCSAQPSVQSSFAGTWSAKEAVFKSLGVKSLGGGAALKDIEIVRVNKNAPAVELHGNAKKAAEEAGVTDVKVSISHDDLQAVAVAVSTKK
Briefly: cryoEM structure; NADPH oxidation at […] nm. The format is biochemical. Conditions: ER domain near FMN (beta chain); KS-stalled state, 3 mM NADPH, cerulenin-inhibited; weak density, partial binding.

Assay [3] has as its target T2, S. cerevisiae type I fungal fatty acid synthase (FAS). The format is biochemical.
Assay [4] has as its target T1, C. albicans type I fungal fatty acid synthase (FAS). As to the kind of experiment: cryoEM structure. Conditions: ER domain (beta chain); Apo state and KS-stalled state. The format is binding.
Assay [5] has as its target T2, S. cerevisiae type I fungal fatty acid synthase (FAS). Briefly: cryoEM structure. The format is binding. The settings on record: ER domain (beta chain); Apo state and KS-stalled state.

Structures are written as SMILES.

With `NC(=O)C1=CN([C@@H]2O[C@H](COP(=O)(O)OP(=O)(O)OC[C@H]3O[C@@H](n4cnc5c(N)ncnc54)[C@H](OP(=O)(O)O)[C@@H]3O)[C@@H](O)[C@H]2O)C=CC1` [NADPH], the “cryoEM structure; NADPH oxidation at 340 nm” value in assay [1] was “Weak density can be seen for the NADPH in proximity of FMN”; in assay [2], “Weak NADPH density can also be seen in proximity of FMN”.

With `C/C=C/C/C=C/CCC(=O)[C@H]1O[C@H]1C(N)=O` [cerulenin], the not named result in assay [3] was “are sensitive to cerulenin, a covalent KS-inhibitor”.

With `Cc1cc2nc3c(=O)[nH]c(=O)nc-3n(C[C@H](O)[C@H](O)[C@H](O)COP(=O)(O)O)c2cc1C` [flavin mononucleotide], the cryoEM structure entry is listed as “catalytic histidine can be modeled with two side chain orientations, one facing FMN” in assay [4] and “the catalytic histidine side chain is in a single conformation facing FMN” in assay [5].
